Results from article PMC11930985 (Nature Communications, 2025).

Experiments:
AML/MDS patients = experiment: Response assessment (ELN AML / modified IWG MDS criteria): ORR, DCR; assay type: in vivo, human
Method: All patients underwent baseline disease assessments at screening (peripheral blood and bone marrow (BM)). Efficacy was assessed according to the blast percentage in a peripheral blood and BM aspirate sample, measurement of absolute neutrophil count, measurement of platelet count, and red cell transfusion requirement according to the European LeukemiaNet[37] response criteria for AML and the modified IWG response criteria for MDS[38]. Response criteria used are summarized in Supplementary Table 4.
Response assessments (peripheral blood and BM) were performed at Cycle 2 Day 1 (pre-dose), Cycle 4 Day 1 (pre-dose) and repeated every 3 cycles thereafter or when clinically indicated. Patients who completed 12 months of study treatment and had not experienced progressive disease (PD) underwent response assessment every 5 cycles until PD was confirmed. Efficacy endpoints were: Objective response rate (ORR), defined as the number of patients with CR, CRi, MLFS, MR or PR divided by the total number of patients in the cohort/group; Disease control rate (DCR), defined as the number of patients with CR, CRi, MLFS, MR, PR or unchanged disease for at least three cycles (considered to have stable disease (SD)) divided by the total number of patients in the cohort/group; Overall survival (OS), defined as (date of death or censoring) – (date of the first study treatment) +1. Censoring date was the last date the patient was known to be alive; Event free survival (EFS), defined as (earliest of date of death, date of progression or date of censoring) – (date of the first study treatment) +1, with event defined as death or progression. Patients who started a new anti-cancer treatment before documented progression were censored at the date of the last assessment prior to start of non-protocol treatment. […] Patients who were alive without documented progression on the last day of contact were censored at the date of the last assessment.

Flt1 = molecular target: Flt1; parameters: method as in Investigator's Brochure (IB) version 5.0; settings: ref Investigator's Brochure (IB) version 5.0; cited from earlier work
Tie2 = molecular target: Tie2; parameters: method as in Investigator's Brochure (IB) version 5.0; settings: ref Investigator's Brochure (IB) version 5.0; cited from earlier work
monkeys = system: monkeys; parameters: method as in Investigator's Brochure (IB) version 5.0; settings: 28-day repeat dose; ref Investigator's Brochure (IB) version 5.0; cited from earlier work
human lymphocytes = system: human lymphocytes; parameters: method as in Investigator's Brochure (IB) version 5.0; settings: ref Investigator's Brochure (IB) version 5.0; cited from earlier work
Hoxa9/Meis1 leukemia = system: Hoxa9/Meis1 leukemia; parameters: method as in Ben-Batalla et al., 2013; settings: ref Ben-Batalla et al., 2013; cited from earlier work
Yes = system: Yes; parameters: method as in Investigator's Brochure (IB) version 5.0; settings: ref Investigator's Brochure (IB) version 5.0; cited from earlier work

Structure (SMILES): Nc1nc(Nc2ccc3c(c2)CC[C@@H](N2CCCC2)CC3)nn1-c1cc2c(nn1)-c1ccccc1CCC2 [Bemcentinib]
- CR (AML/MDS patients; DE 200/100 mg, N=4): 0 n (%)
- CRi (AML/MDS patients; DE 200/100 mg, N=4): 0 n (%)
- MLFS (AML/MDS patients; DE 200/100 mg, N=4): 0 n (%)
- MR (marrow response) (AML/MDS patients; DE 200/100 mg, N=4): 0 n (%)
- NE (not evaluable) (AML/MDS patients; DE 200/100 mg, N=4): 1 (25%) n (%)
- Non-Responder (AML/MDS patients; DE 200/100 mg, N=4): 4 (100%) n (%)
- PD (progressive disease) (AML/MDS patients; DE 200/100 mg, N=4): 1 (25%) n (%)
- PR (AML/MDS patients; DE 200/100 mg, N=4): 0 n (%)
- Responder (AML/MDS patients; DE 200/100 mg, N=4): 0 (0%) n (%)
- UC (unchanged) (AML/MDS patients; DE 200/100 mg, N=4): 1 (25%) n (%)
- CR (AML/MDS patients; DE 400/100 mg, N=6): 0 n (%)
- CRi (AML/MDS patients; DE 400/100 mg, N=6): 0 n (%)
- MLFS (AML/MDS patients; DE 400/100 mg, N=6): 0 n (%)
- MR (marrow response) (AML/MDS patients; DE 400/100 mg, N=6): 1 (17%) n (%)
- NE (not evaluable) (AML/MDS patients; DE 400/100 mg, N=6): 0 n (%)
- Non-Responder (AML/MDS patients; DE 400/100 mg, N=6): 5 (83%) n (%)
- PD (progressive disease) (AML/MDS patients; DE 400/100 mg, N=6): 0 n (%)
- PR (AML/MDS patients; DE 400/100 mg, N=6): 0 n (%)
- Responder (AML/MDS patients; DE 400/100 mg, N=6): 1 (17%) n (%)
- UC (unchanged) (AML/MDS patients; DE 400/100 mg, N=6): 3 (50%) n (%)
- CR (AML/MDS patients; DE 400/200 mg, N=7): 1 (14%) n (%)
- CRi (AML/MDS patients; DE 400/200 mg, N=7): 1 (14%) n (%)
- MLFS (AML/MDS patients; DE 400/200 mg, N=7): 0 n (%)
- MR (marrow response) (AML/MDS patients; DE 400/200 mg, N=7): 0 n (%)
- NE (not evaluable) (AML/MDS patients; DE 400/200 mg, N=7): 1 (14%) n (%)
- Non-Responder (AML/MDS patients; DE 400/200 mg, N=7): 5 (71%) n (%)
- PD (progressive disease) (AML/MDS patients; DE 400/200 mg, N=7): 1 (14%) n (%)
- PR (AML/MDS patients; DE 400/200 mg, N=7): 0 n (%)
- Responder (AML/MDS patients; DE 400/200 mg, N=7): 2 (29%) n (%)
- UC (unchanged) (AML/MDS patients; DE 400/200 mg, N=7): 3 (43%) n (%)
- CR (AML/MDS patients; DE 600/200 mg, N=14): 0 n (%)
- CRi (AML/MDS patients; DE 600/200 mg, N=14): 1 (7%) n (%)
- MLFS (AML/MDS patients; DE 600/200 mg, N=14): 1 (7%) n (%)
- MR (marrow response) (AML/MDS patients; DE 600/200 mg, N=14): 0 n (%)
- NE (not evaluable) (AML/MDS patients; DE 600/200 mg, N=14): 4 (29%) n (%)
- Non-Responder (AML/MDS patients; DE 600/200 mg, N=14): 12 (86%) n (%)
- PD (progressive disease) (AML/MDS patients; DE 600/200 mg, N=14): 3 (21%) n (%)
- PR (AML/MDS patients; DE 600/200 mg, N=14): 0 n (%)
- Responder (AML/MDS patients; DE 600/200 mg, N=14): 2 (14%) n (%)
- UC (unchanged) (AML/MDS patients; DE 600/200 mg, N=14): 4 (29%) n (%)
- CR (AML/MDS patients; DE 900/300 mg, N=5): 0 n (%)
- CRi (AML/MDS patients; DE 900/300 mg, N=5): 0 n (%)
- MLFS (AML/MDS patients; DE 900/300 mg, N=5): 0 n (%)
- MR (marrow response) (AML/MDS patients; DE 900/300 mg, N=5): 0 n (%)
- NE (not evaluable) (AML/MDS patients; DE 900/300 mg, N=5): 2 (40%) n (%)
- Non-Responder (AML/MDS patients; DE 900/300 mg, N=5): 5 (100%) n (%)
- PD (progressive disease) (AML/MDS patients; DE 900/300 mg, N=5): 0 n (%)
- PR (AML/MDS patients; DE 900/300 mg, N=5): 0 n (%)
- Responder (AML/MDS patients; DE 900/300 mg, N=5): 0 (0%) n (%)
- UC (unchanged) (AML/MDS patients; DE 900/300 mg, N=5): 2 (40%) n (%)
- Median time to objective response (AML/MDS patients; DE cohort): 22 days
- ORR (AML/MDS patients; DE cohort overall, 36 patients, monotherapy): 14%
- ORR (AML/MDS patients; DE cohort, 400/200 mg dosing group): 29%
- CR (AML/MDS patients; DE overall, N=36): 1 (3%) n (%)
- CRi (AML/MDS patients; DE overall, N=36): 2 (6%) n (%)
- MLFS (AML/MDS patients; DE overall, N=36): 1 (3%) n (%)
- MR (marrow response) (AML/MDS patients; DE overall, N=36): 1 (3%) n (%)
- NE (not evaluable) (AML/MDS patients; DE overall, N=36): 8 (22%) n (%)
- Non-Responder (AML/MDS patients; DE overall, N=36): 31 (86%) n (%)
- PD (progressive disease) (AML/MDS patients; DE overall, N=36): 5 (14%) n (%)
- PR (AML/MDS patients; DE overall, N=36): 0 n (%)
- Responder (AML/MDS patients; DE overall, N=36): 5 (14%) n (%)
- UC (unchanged) (AML/MDS patients; DE overall, N=36): 13 (36%) n (%)
- Kd (Flt1): 400 nM
- Kd (Tie2): 270 nM
- Target organs (monkeys): liver, reticuloendothelial system and haematopoietic system
- In vitro mammalian cell cytogenetic study result (human lymphocytes): negative
- Survival (Hoxa9/Meis1 leukemia): prolong
- IC50 (Yes): 43 nM
